Laboratory results taken from doi:10.1101/2024.09.10.612317v1 (bioRxiv, 2024).

Assays:
[1] = Turbidity and optical microscopy of LLPS; assay type: physicochemical; conditions: 0.1 M phosphate buffer pH 7.4, 1M NaCl
[2] = test system: BMDCs overlaid with BB7 hybridoma cells; experiment: Antigen presentation assay with Ag85B and BB7 hybridoma; assay type: cell-based, mouse; conditions: Ag85B ∼0.5 μM, BMDCs to BB7 cells 1:7
BMDCs = experiment: Cytokine, chemokine and growth factor production by BMDCs; assay type: cell-based, mouse; conditions: coacervates 10 μM, 24 h, multiplex assays; LPS positive control

| Substance | coacervates at 1M NaCl (optical micrographs) [1] | antigen presentation of Ag85B (IL-2) [2] | induction of cytokines, chemokines and growth factors in BMDCs (BMDCs) |
| --- | --- | --- | --- |
| (GHGLY)4 [GL 20] | presence of coacervates | enhanced antigen presentation of Ag85B | immunologically inert |
| (GHGVY)4 [GV 20] | presence of coacervates | enhanced antigen presentation of Ag85B | immunologically inert |
